Laboratory results as given in US20140080810A1 (Exelixis, Inc., priority 2010, published 2014).
Where two headings read alike, the source gives them in different places.

Key:
PI3Kα = PI3Kα (Homo sapiens, UniProt P42336); test: PI3K Biochemical Assay (ATP consumed, luciferase-luciferin chemiluminescence); settings: for IC50: PIP2 used as substrate, read-out: PI3K biochemical IC50 values PI3Kα; for specificity among PI3Kα, PI3Kβ, PI3Kδ, PI3Kγ and mTOR: summary of Table 3
Procedure: (§1) PI3Kα activity is measured as the percent of ATP consumed following the kinase reaction using luciferase-luciferin-coupled chemiluminescence. Reactions were conducted in 384-well white, medium binding microtiter plates (Greiner). Kinase reactions were initiated by combining test compounds, ATP, substrate (PIP2), and kinase in a 20 μL volume in a buffer solution. The standard PI3Kalpha assay buffer is composed 50 mM Tris, pH 7.5, 1 mM EGTA, 10 mM MgCl2, 1 mM DTT and 0.03% CHAPS. The standard assay concentrations for enzyme, ATP, and substrate are 1.5 nM, 1 μM, and 10 μM, respectively. The reaction mixture was incubated at ambient temperature for approximately 2 h. Following the kinase reaction, a 10 μL aliquot of luciferase-luciferin mix (Promega Kinase-Glo) was added and the chemiluminescence signal measured using a Victor2 plate reader (Perkin Elmer). Total ATP consumption was limited to 40-60% and IC50 values of control compounds correlate well with literature references. Substituting PI3Kα with PI3Kβ, PI3Kγ, or PI3Kδ, the inhibitory activity of the compounds for the other isoforms of I3K were measured.

PI3Kβ = PI3Kβ (Homo sapiens, UniProt P42338); test: PI3K Biochemical Assay; settings: PIP2 used as substrate
Chain of PI3Kβ (P42338 whole entry): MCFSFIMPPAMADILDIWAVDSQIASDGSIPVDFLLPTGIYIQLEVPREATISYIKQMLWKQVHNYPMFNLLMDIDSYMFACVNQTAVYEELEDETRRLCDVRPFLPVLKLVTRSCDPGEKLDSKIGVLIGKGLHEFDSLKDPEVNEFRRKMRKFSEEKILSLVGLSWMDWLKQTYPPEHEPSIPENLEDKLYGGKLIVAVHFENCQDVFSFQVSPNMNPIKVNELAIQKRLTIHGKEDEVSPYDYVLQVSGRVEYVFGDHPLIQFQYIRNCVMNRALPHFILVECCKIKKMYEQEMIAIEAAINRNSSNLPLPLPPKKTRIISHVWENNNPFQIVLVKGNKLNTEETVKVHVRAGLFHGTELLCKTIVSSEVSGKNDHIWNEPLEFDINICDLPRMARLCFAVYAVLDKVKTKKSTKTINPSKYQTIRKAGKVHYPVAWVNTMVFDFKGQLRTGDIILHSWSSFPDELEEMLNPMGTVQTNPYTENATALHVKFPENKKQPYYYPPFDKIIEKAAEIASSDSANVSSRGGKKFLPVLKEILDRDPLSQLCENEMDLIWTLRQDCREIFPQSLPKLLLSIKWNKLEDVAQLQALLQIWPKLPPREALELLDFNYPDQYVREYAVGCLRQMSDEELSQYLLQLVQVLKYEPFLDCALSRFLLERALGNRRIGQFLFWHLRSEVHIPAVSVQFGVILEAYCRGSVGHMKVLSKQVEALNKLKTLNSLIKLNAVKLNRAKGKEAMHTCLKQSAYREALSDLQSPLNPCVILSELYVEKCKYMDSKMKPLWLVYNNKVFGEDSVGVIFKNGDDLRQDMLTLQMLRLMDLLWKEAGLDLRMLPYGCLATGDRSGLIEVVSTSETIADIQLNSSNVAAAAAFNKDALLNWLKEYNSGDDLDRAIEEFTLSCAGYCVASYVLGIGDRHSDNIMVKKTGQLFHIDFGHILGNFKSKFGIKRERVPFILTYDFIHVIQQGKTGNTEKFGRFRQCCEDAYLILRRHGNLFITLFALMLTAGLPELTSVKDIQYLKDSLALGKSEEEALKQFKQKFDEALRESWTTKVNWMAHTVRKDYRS
Chain of PI3Kβ (P27986 whole entry partner): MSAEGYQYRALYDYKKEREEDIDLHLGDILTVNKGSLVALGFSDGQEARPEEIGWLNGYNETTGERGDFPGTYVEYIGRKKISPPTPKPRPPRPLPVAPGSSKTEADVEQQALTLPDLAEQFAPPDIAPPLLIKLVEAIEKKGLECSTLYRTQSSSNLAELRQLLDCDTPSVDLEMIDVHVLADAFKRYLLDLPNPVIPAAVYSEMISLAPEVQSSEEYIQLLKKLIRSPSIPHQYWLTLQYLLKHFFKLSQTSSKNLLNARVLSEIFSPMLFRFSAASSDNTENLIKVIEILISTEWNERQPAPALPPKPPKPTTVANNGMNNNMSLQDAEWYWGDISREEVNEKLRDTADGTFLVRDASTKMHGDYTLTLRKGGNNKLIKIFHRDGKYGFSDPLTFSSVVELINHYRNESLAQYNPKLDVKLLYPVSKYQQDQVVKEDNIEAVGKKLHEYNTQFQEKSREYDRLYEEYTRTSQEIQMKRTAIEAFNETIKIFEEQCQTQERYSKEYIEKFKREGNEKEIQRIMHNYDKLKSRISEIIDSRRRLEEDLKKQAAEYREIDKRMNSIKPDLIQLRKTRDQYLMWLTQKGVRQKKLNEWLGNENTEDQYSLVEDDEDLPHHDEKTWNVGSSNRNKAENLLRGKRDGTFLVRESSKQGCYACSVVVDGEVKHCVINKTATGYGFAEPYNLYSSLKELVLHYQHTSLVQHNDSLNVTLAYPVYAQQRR
Procedure: as §1, with “Total ATP consumption was limited to 40-60% and IC50 values of control compounds correlate well with literature references.” left out

[1] = system: pAKT (T308) in PC-3 cells (PTEN-null); test: pAKT (T308) ELISA Assay; type: cell-based; settings: Homo sapiens
Procedure: MCF-7 cells (ATCC) cells were seeded at 24000 cells per well in 96-well plates (Corning, 3904) in DMEM (Cellgro) containing 10% FBS (Cellgro), 1% NEAA (Cellgro) and 1% penicillin-streptomycin (Cellgro). Cells were incubated at 37° C., 5% CO2 for 48 h, and the growth medium was replaced with serum-free DMEM or in medium containing 0.4% BSA. Serial dilutions of the test Compound in 0.3% DMSO (vehicle) were added to the cells and incubated for 3 h. At the end of the incubation period, cells were stimulated for 10 minutes by the addition of L-IGF (Sigma, I-1271) at a final concentration of 100 ng/ml. Afterwards, media was discarded from cell plates and 110 μl/well of cold lysis buffer (see table below) were added. Cell plates were incubated on ice and then put on shaker in 4° C. cold room for 1 h. Two capture plates (Thermo Scientific, Reacti-bind plate, 15042) were prepared for each cell plate by pre-coating with capture Akt antibody from the two sandwich ELISA antibody pairs used (Cell Signaling Technology 7142 and 7144). The Akt capture antibodies were diluted 1:100 in PBS and 100 μl of diluted capture antibody was added per well. Capture plates were incubated at 4 C overnight. […] After 1 h of cell lysis, 85 μl of cell lysate/well was transferred to the capture plate for detection of pAkt(T308). 15 μl of cell lysate was transferred from same well to the second capture plate for detection of total Akt1. After incubation overnight at 4° C., plates were washed 3 times with 200 μL TBST. Primary antibodies, diluted 1:100 in blocking buffer, were added to the corresponding capture plates for pAkt(T308) (Cell Signaling Technology, 7144) and total Akt1 (Cell Signaling Technology, 7142) detection and incubated at room temperature for 1 h. Plates were washed 3 times with 200 μL of TBST. Goat anti-mouse secondary antibody (Cell Signaling Technology, 7076) conjugated to HRP was diluted 1:1000 in blocking buffer and 100 μl were added to each well and incubated for 30 minutes at room temperature. Plates were then washed 3 times with 200 μL of TBST. 100 μL of SuperSignal ELISA Femto stable peroxidase solution (Thermo Scientific, 37075) was added to each well. After 1 minute incubation, chemiluminescence was read on a Wallac Victor2 1420 multilabel counter. IC50 values were determined based on the ratio of pAkt(T308) to total Akt1 signal for Compound treated wells, normalized to the DMSO-treated control wells.
In another embodiment, the pAKT ELISA Assay was performed by seeding cells onto 96-well plates (Corning, 3904) in their respective growth media at the densities listed in Table 5. Cells were incubated at 37° C., 5% CO2 for 48 h (except MDA-MB-453 cells which were cultured in the absence of CO2). Compounds were serially diluted in DMSO and subsequently diluted in serum-free DMEM. Test compounds were added to cells in serum-free DMEM at a final concentration of 0.3% DMSO and incubated for 3 h. Cells were lysed with 130 μL of ice-cold RIPA lysis buffer (50 mM Tris-HCl, pH 7.5; 0.5% sodium deoxycholic acid; 1% Triton X-100; 0.1% SDS; 150 mM NaCl) with protease and phosphatase inhibitors (1 mM EDTA, 1 mM NaF, 20 mM β-glycerophosphate, 1 mM Na-orthovanadate, Complete-Mini EDTA-free, Roche, 11836170001, and Phosphatase Inhibitor Cocktail I, Sigma, P2850), directly in 96-well plates. Cells were lysed on ice for 60-120 min at 4° C. The supernatants were added directly to capture ELISA plates previously pre-coated with rabbit anti-AKT capture antibody. ELISA assays for pAKT(T308) and total AKT were performed with the pAKT(T308) ELISA kit (Cell Signaling Technology, 7144) and AKT1 ELISA kit (Cell Signaling Technology, 7142). For the pAKT(T308) ELISA, 85 μL of cell lysate was added to each well. For the total AKT1 ELISA, 15 μL of cell lysate and 85 μL of Starting Block buffer (Pierce, 37543) were added to each well.

[2] = IGF1 stimulation, read-out: pAKT (T308) IC50 PC# PTEN-null IGF1
[3] = LPA stimulation, read-out: pAKT (T308) IC50 PC# PTEN-null LPA

Chain of PI3Kα (P42336 whole entry): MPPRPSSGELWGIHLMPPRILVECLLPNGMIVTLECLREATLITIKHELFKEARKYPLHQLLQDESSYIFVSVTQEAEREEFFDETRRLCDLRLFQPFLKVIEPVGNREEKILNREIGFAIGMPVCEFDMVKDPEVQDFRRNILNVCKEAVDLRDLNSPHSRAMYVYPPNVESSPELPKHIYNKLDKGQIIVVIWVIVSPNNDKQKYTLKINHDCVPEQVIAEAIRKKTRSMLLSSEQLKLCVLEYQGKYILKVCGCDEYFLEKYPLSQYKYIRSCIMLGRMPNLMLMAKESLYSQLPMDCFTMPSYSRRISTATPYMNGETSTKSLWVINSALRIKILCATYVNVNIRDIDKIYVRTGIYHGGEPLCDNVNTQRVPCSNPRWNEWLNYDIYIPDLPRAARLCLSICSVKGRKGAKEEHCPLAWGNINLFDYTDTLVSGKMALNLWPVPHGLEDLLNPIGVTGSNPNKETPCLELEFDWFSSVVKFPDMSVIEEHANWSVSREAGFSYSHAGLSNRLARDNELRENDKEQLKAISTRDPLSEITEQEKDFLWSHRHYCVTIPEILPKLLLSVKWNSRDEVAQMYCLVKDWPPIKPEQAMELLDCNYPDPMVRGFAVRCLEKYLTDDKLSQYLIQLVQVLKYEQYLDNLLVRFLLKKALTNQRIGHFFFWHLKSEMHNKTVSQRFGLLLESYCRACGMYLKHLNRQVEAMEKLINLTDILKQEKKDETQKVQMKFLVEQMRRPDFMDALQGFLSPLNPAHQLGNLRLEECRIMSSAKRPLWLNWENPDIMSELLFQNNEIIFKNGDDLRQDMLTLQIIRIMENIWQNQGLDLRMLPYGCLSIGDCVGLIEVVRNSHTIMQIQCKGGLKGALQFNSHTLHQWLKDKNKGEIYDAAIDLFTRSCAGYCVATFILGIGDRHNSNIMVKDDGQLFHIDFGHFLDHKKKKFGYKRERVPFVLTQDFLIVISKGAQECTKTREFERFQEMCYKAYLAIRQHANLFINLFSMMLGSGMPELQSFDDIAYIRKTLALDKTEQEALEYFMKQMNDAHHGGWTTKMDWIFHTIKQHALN
Chain of PI3Kα (P27986 whole entry partner): as the sequence (P27986 whole entry partner) above

What does the source list for `Cc1nc2ncc(-c3ccc4c(c3)CN(c3nc(CN(C)C)nc5c3CC(C)(C)CC5)CCO4)cc2[nH]1` [Compound 693]?
IC50 (PI3Kα): 2 nM; IC50 (PI3Kβ): > 3000 nM

What does the source list for `Cc1nc2cc(-c3ccc4c(c3)CN(c3nc(CN(C)C)nc(C)c3C(C)C)CCO4)cnc2[nH]1` [Compound 694]?
IC50 (PI3Kα): 4 nM; IC50 (PI3Kβ): > 3000 nM; IC50 [1, 2]: 231 nM; IC50 [1, 3]: 571 nM

How did the IC50 (PI3Kα) turn out when `COc1ccc2c(N3CCOc4ccc(-c5cnc6nc(C)[nH]c6c5)cc4C3)nc(CN(C)C)nc2c1` [Compound 696] was run?
The IC50 was 3 nM.

What about the “specificity among PI3Kα, PI3Kβ, PI3Kδ, PI3Kγ and mTOR” value (PI3Kα) of the same compound?
The value was “specific for PI3Kα isoforms”.

What about the IC50 (PI3Kβ) of the same compound?
Its IC50 is 1310 nM.

And the IC50 [1, 2]?
The IC50 was 1680 nM.

And the IC50 [1, 3]?
Its IC50 is 1860 nM.

With `CCNc1nc2ccc(-c3ccc4c(c3)CN(c3ccnc5cc(F)ccc35)CCO4)cc2[nH]1` [Compound 698] as the compound, how does the IC50 (PI3Kα) read?
Its IC50 is 3 nM.

What about the “specificity among PI3Kα, PI3Kβ, PI3Kδ, PI3Kγ and mTOR” value (PI3Kα) of the same compound?
Its value is “specific for PI3Kα isoforms”.

What about the IC50 (PI3Kβ) of the same compound?
Its IC50 is 1560 nM.

What about the IC50 [1, 2] of the same compound?
Its IC50 is 2870 nM.

And the IC50 [1, 3]?
Its IC50 is 4540 nM.

Which results are given for `CCNc1nc2ccc(-c3ccc4c(c3)CN(c3ncnc(NCC)c3C)CCO4)cc2[nH]1` [Compound 699]?
IC50 (PI3Kα): 6 nM; specificity among PI3Kα, PI3Kβ, PI3Kδ, PI3Kγ and mTOR (PI3Kα): specific for PI3Kα isoforms; IC50 (PI3Kβ): 1740 nM; IC50 [1, 2]: 2120 nM; IC50 [1, 3]: 3800 nM
